In PMC11520566, “Discovery of pyrazole-based analogs as CDK2 inhibitors with apoptotic-inducing activity: design, synthesis and molecular dynamics study” (RSC Advances, 2024):
pIC50: −log10 of the molar value.

How the values were obtained:
CDK2/cyclin A2 = biological target: T1, CDK2/cyclin A2 (Homo sapiens, UniProt P24941); assay: In vitro CDK2/cyclin A2 enzyme inhibition assay (ADP-Glo); format: biochemical; settings: for percentage enzyme activity: at 50 μM; for Relative activity: supplement S1, DMSO = 100, screen at 50 μM; for pIC50: n = 3, read-out: IC50 against CDK2/cyclin A2
T1 construct: purchased Promega
Procedure: The studied pyrazoles 2a–g, 4, 7a–d, 8a and b, 9, and 10 were assessed for their in vitro CDK2/cyclin A2 enzyme inhibition assay at a concentration of 50 μM using the Promega CDK2/cyclinA2 kinase enzyme system coupled with the ADP-Glo assay.[32,33] The percentage enzyme activity was the lowest for five compounds, namely 4, 7a, 7d, 8a, and 9 with values of 24.7%, 17.5%, 11.5%, 27.1% and 14.5%, respectively.
The in vitro assay of CDK2/cyclin A2 protein kinase was carried out on all the synthesized compounds. The kinase assay was performed in a 96-well white plate with a reaction volume of […]. The reaction was performed in four steps as follows: 2.5 μL of the test compounds or 5% DMSO and 5 μL of CDK2/cyclin A2 enzyme (1.6 ng) was added, and then incubated at room temperature for 30 min. Then, 5 μL of 50 μM ATP. 0.1 μg μL^−1 histone H1 was added and incubated for 10 min. The reaction was stopped by adding 12.5 μL of ADP-Glo™ Reagent and incubated for 40 min. Then 25 μL of kinase detection reagent was added to each well and incubated for 60 min before detection with luminescence (Integration time 0.5–1 s).[25,32,33]

MCF7 = assay: NCI 60 single dose screen, Breast cancer; format: cell-based, human; settings: single dose 10 μM
Procedure: (§1) The newly synthesized pyrazoles 2a–g, 7a–d, 8a and b, 9, and 10 were submitted to the National Cancer Institute (NCI) Developmental Therapeutics Program (http://www.dtp.nci.nih.gov) for assessment of their potential antiproliferative activity against a panel of NCI 60 cancer cell lines. All compounds were approved for screening against the approved 60 cancer cell lines at a single dose of 10 μM. The human cancer cell lines were derived from 9 variant cancer types including leukemia, melanoma, lung, colon, CNS, ovarian, renal, prostate and breast cancers. The results are presented as percentage of growth inhibition (GI%) of the screened compounds against the full panel of cell lines.
(§2) Under sterile conditions, the cell lines were grown in RPMI 1640 media (Gibco, NY, USA) supplemented with 10% fetal bovine serum (Biocell, CA, USA), and […] cell/mL was used to test the growth inhibition activity of the synthesized compounds. The compounds with concentrations ranging from 0.01 to 100 μM were prepared in phosphate buffer saline. Each compound was initially solubilized in dimethyl sulfoxide (DMSO); however, each final dilution contained less than 1% DMSO. Solutions of different concentrations (0.2 mL) were pipetted into the separate well of a microtiter tray in duplicate. Cell culture (1.8 mL) containing a cell population of […] cells per mL was pipetted into each well. Controls, containing only phosphate buffer saline and DMSO at identical dilutions, were also prepared in the same manner. These cultures were incubated in a humidified incubator at 37 °C. The incubator was supplied with 5% CO2 atmosphere. After 48 h, the cells in each well were diluted 10 times with saline and counted using a Coulter counter. The counts were corrected for the dilution.[34]

[1] = test system: CDK 1, 2, 4, 6 and 9 isoforms; set-up: method as in PMID 18656911; settings: range over CDK 1, 2, 4, 6 and 9 isoforms; cited from earlier work
CDK2 [2] = settings: cited from earlier work; for pIC50: CDK2
MDA-MB-468 = assay: NCI 60 single dose screen, Breast cancer; format: cell-based, human; settings: single dose 10 μM
Procedure: as §1, §2

NCI 60 cancer cell lines = assay: NCI 60 single dose screen, mean over full panel; format: cell-based, human; settings: mean over NCI 60 cell lines; single dose 10 μM
Procedure: as §1, §2

CCRF-CEM = assay: NCI 60 single dose screen, Leukemia; format: cell-based, human; settings: single dose 10 μM
Procedure: as §1, §2

MALME-3M = assay: NCI 60 single dose screen, Melanoma; format: cell-based, human; settings: single dose 10 μM
Procedure: as §1, §2

SK-MEL-2 = assay: NCI 60 single dose screen, Melanoma; format: cell-based, human; settings: single dose 10 μM
Procedure: as §1, §2

T-47D = assay: NCI 60 single dose screen, Breast; format: cell-based, human; settings: single dose 10 μM
Procedure: as §1
Under sterile conditions, the cell lines were grown in RPMI 1640 media (Gibco, NY, USA) supplemented with 10% fetal bovine serum (Biocell, CA, USA), and […] cell/mL was used to test the growth inhibition activity of the synthesized compounds. The compounds with concentrations ranging from 0.01 to 100 μM were prepared in phosphate buffer saline. Each compound was initially solubilized in dimethyl sulfoxide (DMSO); however, each final dilution contained less than 1% DMSO. Solutions of different concentrations (0.2 mL) were pipetted into the separate well of a microtiter tray in duplicate. […] After 48 h, the cells in each well were diluted 10 times with saline and counted using a Coulter counter. […]

HCT-116 cell line = assay: MTT cell viability assay; format: cell-based; settings: Homo sapiens, read-out: IC50 (cytotoxicity, MTT)
CDK2 [3] = assay: Western blot of CDK2 expression in HCT-116 cells; format: cell-based; settings: 1 μM, 48 h, vs vehicle treated cells
Description: The method of sodium dodecyl sulfate polyacrylamide gel electrophoresis (SDS-PAGE) is employed to separate proteins based on their size. When combined with western blotting (immunoblotting), both techniques are commonly used to identify the presence and/or relative abundance of a specific protein within a sample containing a complex mixture of proteins.[36] In this process, each sample's total protein content is loaded onto a gel and separated by electrophoresis, allowing proteins to migrate through the gel matrix under the influence of an electric current. To facilitate protein migration, the proteins are initially denatured and given a negative charge by exposure to a detergent like SDS. A molecular weight marker with known-sized bands assists in identifying proteins of interest. […] Typically, the secondary antibody is linked to an enzyme that generates luminescence upon reacting with its substrate. The intensity of the luminescence, directly correlating with the amount of protein that interacted with the antibody, is captured by a Bio-Rad Imager.[36] […]
HCT-116 cells were treated with either 3 μM of compound 4 and 1 μM of compound 9 and incubated 48 h. The cells were lysed by 1× RIPA buffer containing protease and phosphatase inhibitors to quantify the protein concentration by BCA protein assay. […]

in vitro = settings: human

Compound | Relative activity (CDK2/cyclin A2) | melting point | also measured
Nc1n[nH]c(N)c1/N=N/c1ccc(O)cc1 [CAN508 (III)] | – | – | pIC50 (CDK2 [2]): 6.46
O=C1NN=C(Nc2ccccc2)C1=NNc1ccccc1 [Compound 2a, 5-(Phenylamino)-4-(2-phenylhydrazono)-2,4-dihydro-3H-pyrazol-3-one] | 51.4 | 215 to 217 °C | GI% (MCF7): 73.8%
O=C1NN=C(Nc2ccccc2)C1=NNc1ccc(F)cc1 [Compound 2b, 4-(2-(4-Fluorophenyl)hydrazono)-5-(phenylamino)-2,4-dihydro-3H-pyrazol-3-one] | 55.6 | 239 to 240 °C | GI% (MCF7): 86.1%; GI% (MDA-MB-468): 72.25%
O=C1NN=C(Nc2ccccc2)C1=NNc1ccc(Cl)cc1 [Compound 2c, 4-(2-(4-Chlorophenyl)hydrazono)-5-(phenylamino)-2,4-dihydro-3H-pyrazol-3-one] | 59.3 | 249 to 251 °C | GI% (MCF7): 77.1%
O=C1NN=C(Nc2ccccc2)C1=NNc1ccc(O)cc1 [Compound 2d, 4-(2-(4-Hydroxyphenyl)hydrazono)-5-(phenylamino)-2,4-dihydro-3H-pyrazol-3-one] | 40.2 | 257 to 259 °C | mean GI% (NCI 60 cancer cell lines): 27.12%
Cc1ccc(NN=C2C(=O)NN=C2Nc2ccccc2)cc1 [Compound 2e, 5-(Phenylamino)-4-(2-(p-tolyl)hydrazono)-2,4-dihydro-3H-pyrazol-3-one] | 56.6 | 251 to 253 °C | mean GI% (NCI 60 cancer cell lines): 6.87%
COc1ccc(NN=C2C(=O)NN=C2Nc2ccccc2)cc1 [Compound 2f, 4-(2-(4-Methoxyphenyl)hydrazono)-5-(phenylamino)-2,4-dihydro-3H-pyrazol-3-one] | 62.1 | 240 to 242 °C | mean GI% (NCI 60 cancer cell lines): 10.24%
CC(=O)c1ccc(NN=C2C(=O)NN=C2Nc2ccccc2)cc1 [Compound 2g, 4-(2-(4-Acetylphenyl)hydrazono)-5-(phenylamino)-2,4-dihydro-3H-pyrazol-3-one] | 59.5 | 265 to 267 °C | –
N#Cc1c(Nc2ccccc2)n[nH]c1NCc1ccccc1 [Compound 9, 5-(benzylamino)-3-(phenylamino)-1H-pyrazole-4-carbonitrile] | 14.5 | 136 to 137 °C | percentage enzyme activity (CDK2/cyclin A2): 14.5%; pIC50 (CDK2/cyclin A2): 6.02; GI% (CCRF-CEM): 81.65%; GI% (MALME-3M): 78.10%; GI% (SK-MEL-2): 79.33%; GI% (T-47D): 82.76%; mean GI% (NCI 60 cancer cell lines): 65.90%; pIC50 (HCT-116 cell line): 5.00; expression of CDK-2 (western blot) (CDK2 [3]): inhibitions in the expression of CDK-2; pIC50 (in vitro): 4.25
CC(=O)N(C(C)=O)c1[nH]nc(Nc2ccccc2)c1C#N [Compound 10, N-acetyl-N-(4-cyano-3-(phenylamino)-1H-pyrazol-5-yl)acetamide] | 49.9 | 173 to 175 °C | –
NC(=O)c1ccc(-c2ccc(F)c(C(=O)Nc3c[nH]nc3C(=O)Nc3ccc(F)cc3)c2F)cn1 [DC-K2in212 (IV)] | – | – | pIC50 (CDK2 [2]): 6.53; selectivity against CDK2 over CDK1 (CDK2 [2]): 17 fold

Further lines, with some results ahead:

Relative activity (CDK2/cyclin A2) | melting point | Compound | also measured
56.4 | – | 4-Chloro-N-(4-cyano-3-(phenylamino)-1H-pyrazol-5-yl)benzamide [Compound 8a] | percentage enzyme activity (CDK2/cyclin A2): 27.1%
68.6 | – | 5-((4-Methoxybenzylidene)amino)-3-(phenylamino)-1H-pyrazole-4-carbonitrile [Compound 7c] | GI% (MCF7): 79.41%
42.3 | 265 to 267 °C | N#Cc1c(Nc2ccccc2)n[nH]c1N=Cc1ccc(F)cc1 [Compound 7a, 5-((4-Fluorobenzylidene)amino)-3-(phenylamino)-1H-pyrazole-4-carbonitrile] | pIC50 (CDK2/cyclin A2): 5.70
70.7 | 273 to 275 °C | N#Cc1c(Nc2ccccc2)n[nH]c1N=Cc1ccc(Cl)cc1 [Compound 7b, 5-((4-Chlorobenzylidene)amino)-3-(phenylamino)-1H-pyrazole-4-carbonitrile] | –
11.5 | 284 to 285 °C | CN(C)c1ccc(C=Nc2[nH]nc(Nc3ccccc3)c2C#N)cc1 [Compound 7d, 5-((4-(Dimethylamino)benzylidene)amino)-3-(phenylamino)-1H-pyrazole-4-carbonitrile] | percentage enzyme activity (CDK2/cyclin A2): 11.5%; pIC50 (CDK2/cyclin A2): 5.83
27.1 | 233 to 235 °C | COc1ccc(C(=O)Nc2[nH]nc(Nc3ccccc3)c2C#N)cc1 [Compound 8b, N-(4-Cyano-3-(phenylamino)-1H-pyrazol-5-yl)-4-methoxybenzamide] | pIC50 (CDK2/cyclin A2): 4.73
